# In ChEMBL document CHEMBL3751720, “Investigating molecular dynamics-guided lead optimization of EGFR inhibitors” (Bioorg Med Chem, 2016):
# Biological target: Epidermal growth factor receptor (Homo sapiens) (UniProt P00533)
# Assay: Inhibition of wild-type EGFR (unknown origin) assessed as enzyme residual activity at 10 uM for 60 mins by microplate scintillation counter in presence of [gamma-33P]-ATP
# Chain of Epidermal growth factor receptor (Homo sapiens) (P00533 whole entry): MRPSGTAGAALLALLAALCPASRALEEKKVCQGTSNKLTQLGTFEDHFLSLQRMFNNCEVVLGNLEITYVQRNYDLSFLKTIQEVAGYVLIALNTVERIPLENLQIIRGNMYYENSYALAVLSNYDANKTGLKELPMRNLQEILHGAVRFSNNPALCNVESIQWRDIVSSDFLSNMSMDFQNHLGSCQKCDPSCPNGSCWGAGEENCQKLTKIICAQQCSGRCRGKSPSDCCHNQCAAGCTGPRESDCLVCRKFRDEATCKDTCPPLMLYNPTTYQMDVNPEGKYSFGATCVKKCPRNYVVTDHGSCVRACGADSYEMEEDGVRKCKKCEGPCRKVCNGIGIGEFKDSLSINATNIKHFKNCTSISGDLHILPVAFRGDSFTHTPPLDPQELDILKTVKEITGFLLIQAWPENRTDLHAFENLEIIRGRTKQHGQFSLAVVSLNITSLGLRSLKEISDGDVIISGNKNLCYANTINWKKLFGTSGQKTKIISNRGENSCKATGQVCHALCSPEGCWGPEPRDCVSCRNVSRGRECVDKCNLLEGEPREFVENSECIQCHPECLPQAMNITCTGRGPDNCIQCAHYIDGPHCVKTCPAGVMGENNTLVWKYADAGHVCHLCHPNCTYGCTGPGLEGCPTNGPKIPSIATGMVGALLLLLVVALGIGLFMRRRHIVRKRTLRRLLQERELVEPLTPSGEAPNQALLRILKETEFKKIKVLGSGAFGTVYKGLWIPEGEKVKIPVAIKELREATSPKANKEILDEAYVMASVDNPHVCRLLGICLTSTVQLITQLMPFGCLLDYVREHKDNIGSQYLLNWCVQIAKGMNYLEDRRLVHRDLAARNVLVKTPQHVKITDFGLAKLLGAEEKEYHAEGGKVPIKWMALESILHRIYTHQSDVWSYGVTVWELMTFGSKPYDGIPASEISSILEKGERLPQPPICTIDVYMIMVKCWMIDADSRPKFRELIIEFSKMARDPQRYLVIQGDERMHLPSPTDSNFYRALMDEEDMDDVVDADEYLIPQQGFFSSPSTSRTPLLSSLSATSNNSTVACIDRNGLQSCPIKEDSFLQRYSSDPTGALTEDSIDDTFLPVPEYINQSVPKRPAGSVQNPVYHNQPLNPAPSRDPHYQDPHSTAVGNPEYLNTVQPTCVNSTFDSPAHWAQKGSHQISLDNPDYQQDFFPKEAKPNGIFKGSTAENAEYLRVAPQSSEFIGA
row,Activity [%],SMILES
1,3,Cn1c(=O)c(-c2c(Br)cccc2Br)cc2c(N)nc(Nc3ccccc3)nc21
2,49,Cn1c(=O)c(-c2ccccc2)cc2c(N)nc(Nc3ccccc3)nc21
3,61,Cn1c(=O)c(-c2c(F)cccc2C(F)(F)F)cc2c(N)nc(Nc3ccccc3)nc21
4,14,Cn1c(=O)c(-c2c(Cl)cccc2Cl)cc2c(N)nc(Nc3ccccc3)nc21
